Experimental data taken from patent US12492370B2, “Method for producing protein using a Talaromyces cellulolyticus strain having reduced activity of PEP4” (AJINOMOTO CO., INC., priority 2020, dated 2025).
Non-standard residues stand in square brackets, D forms with d. Residues, ends and D or L forms follow the SMILES beside them. *: point of attachment. Sta = CC(C)C[C@H](N)[C@@H](O)CC(=O)O; Isovaleryl = CC(C)CC(=O)*

Tests used:
[1] = test system: protease activity of the culture supernatant of the control strain; experiment: Protease activity of control strain culture supernatant with pepstatin A added; type: biochemical, Talaromyces cellulolyticus
Description: (§1) The protein concentration of the culture supernatant of each strain was measured using Protein Assay CBB (Nacalai Tesque). To confirm protease activity against casein, protease activity was measured using Amplite™ Universal Fluorimetric Protease Activity Assay Kit *Green (AAT Bioquest, Inc.). At the same time, protease activity was also measured under conditions in which an aspartate protease inhibitor pepstatin A was added.
(§2) A 50-μL aliquot of a 2× assay buffer included in the kit containing 0.5 μL of a protease substrate included in the kit (green fluorescent casein substrate) was dispensed into a 96-well plate (Greiner, product number: 655090), and 50 μL of the culture supernatants of the control strain and the Δpep4 strain were added to respective wells. Under conditions with pepstatin A addition, pepstatin A (Sigma-Aldrich, product number: P2032) was added at a final concentration of 10 μM. Protease activity was measured by measuring Relative Fluorescence Units (RFU, excitation/emission=490/525 nm) every 2 minutes at 37° C. using a microplate reader system SpectraMax® M2 (Molecular Devices). The obtained RFU was divided by the total amount of protein used in the measurement and the reaction time, to thereby calculate the protease specific activity per total amount of protein in the culture supernatant. In the table, the term “relative activity” represents the ratio of the protease specific activity of each sample to the protease specific activity of the control strain in the absence of pepstatin A. In the absence of pepstatin A, the protease specific activity of the culture supernatant of the Δpep4 strain was reduced to approximately 36% of that of the control strain.

[2] = test system: protease activity of the culture supernatant of the Δpep4 strain; experiment: Protease activity of Δpep4 strain culture supernatant with pepstatin A added; type: biochemical, Talaromyces cellulolyticus
Description: as §1, §2

[3] = Pepstatin A 10 μM, ratio to control strain in the absence of pepstatin A

SMILES: CC(C)CC(=O)N[C@H](C(=O)N[C@H](C(=O)N[C@@H](CC(C)C)[C@@H](O)CC(=O)N[C@@H](C)C(=O)N[C@@H](CC(C)C)[C@@H](O)CC(=O)O)C(C)C)C(C)C [Pepstatin A, pepstatin A] (Isovaleryl-VV[Sta]A[Sta]-OH)
- Protease specific activity ([1]; Pepstatin A 10 μM, 37° C.): 0.006 RFU/ug/min
- Relative activity [1, 3]: 12%
- protease specific activity inhibited by pepstatin A ([1]; pepstatin A 10 μM): about 88%
- Protease specific activity ([2]; Pepstatin A 10 μM, 37° C.): 0.016 RFU/ug/min
- Relative activity [2, 3]: 34%
- difference in protease specific activity between presence or absence of pepstatin A ([2]; pepstatin A 10 μM): almost no difference
